Assay results from ChEMBL document CHEMBL1201861, “Genomics of Drug Sensitity in Cancer screening data, Wellcome Trust Sanger Institute”.
Where “and” joins values, the source holds several entries; their conditions need not be identical. Identical values can stand only once.

Assays:
Assay in all cases: cells
ONS-76 = assay type: functional, cell-based, Homo sapiens;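 also: growth inhibition of human ONS-76 cells, read out with a cell viability assay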
Description: SANGER: Inhibition of human ONS-76 cell growth in a cell viability assay.

IST-MEL1 = assay type: functional, cell-based, Homo sapiens;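 also: growth inhibition of the cell line, read out with a cell viability assay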
Description: SANGER: Inhibition of human IST-MEL1 cell growth in a cell viability assay.

ABC-1 = assay type: functional, cell-based, Homo sapiens;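 also: growth inhibition of human ABC-1 cells, read out by a cell viability assay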
Description: SANGER: Inhibition of human ABC-1 cell growth in a cell viability assay.

SNB-75 = assay type: functional, cell-based, Homo sapiens;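 also: cell viability assay measuring growth inhibition of human SNB-75 cells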
Description: SANGER: Inhibition of human SNB75 cell growth in a cell viability assay.

HEL = assay type: functional, cell-based, Homo sapiens;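 also: growth inhibition of HEL cells, read out with a cell viability assay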
Description: SANGER: Inhibition of human HEL cell growth in a cell viability assay.

HCC1937 = assay type: functional, cell-based, Homo sapiens;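 also: growth inhibition measured with a cell viability read-out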
Description: SANGER: Inhibition of human HCC1937 cell growth in a cell viability assay.

Panc1005 = assay type: functional, cell-based, Homo sapiens;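 also: growth inhibition of human PANC-10-05 cells, measured by a cell viability assay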
Description: SANGER: Inhibition of human PANC-10-05 cell growth in a cell viability assay.

T98G = assay type: functional, cell-based, Homo sapiens;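 also: growth inhibition of T98G cells, read out by a cell viability assay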
Description: SANGER: Inhibition of human T98G cell growth in a cell viability assay.

DU-4475 = assay type: functional, cell-based; conditions: Homo sapiens
Description: SANGER: Inhibition of human DU-4475 cell growth in a cell viability assay.

COLO-829 = assay type: functional, cell-based, Homo sapiens
Description: SANGER: Inhibition of human COLO-829 cell growth in a cell viability assay.

UACC-62 = assay type: functional, cell-based, Homo sapiens;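 also: growth inhibition of human UACC-62 cells, read out by a cell viability assay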
Description: SANGER: Inhibition of human UACC-62 cell growth in a cell viability assay.

SK-OV-3 = assay type: functional, cell-based, Homo sapiens;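 also: growth inhibition of SK-OV-3 human cells, read out with a cell viability assay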
Description: SANGER: Inhibition of human SK-OV-3 cell growth in a cell viability assay.

J-RT3-T3-5 = assay type: functional, cell-based; conditions: Homo sapiens;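 also: cell viability assay measuring growth inhibition of human J-RT3-T3-5 cells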
Description: SANGER: Inhibition of human J-RT3-T3-5 cell growth in a cell viability assay.

BB65-RCC = assay type: functional, cell-based, Homo sapiens;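 also: growth inhibition of the cell line, measured with a cell viability assay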
Description: SANGER: Inhibition of human BB65-RCC cell growth in a cell viability assay.

CAS-1 = assay type: functional, cell-based, Homo sapiens;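 also: growth inhibition of CAS-1 cells, measured with a cell viability assay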
Description: SANGER: Inhibition of human CAS-1 cell growth in a cell viability assay.

A 172 = assay type: functional, cell-based, Homo sapiens;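 also: growth inhibition of A172 cells, measured with a cell viability readout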
Description: SANGER: Inhibition of human A172 cell growth in a cell viability assay.

A704 = assay type: functional, cell-based, Homo sapiens;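 also: growth inhibition of human A704 cells, read out with a cell viability assay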
Description: SANGER: Inhibition of human A704 cell growth in a cell viability assay.

BCPAP = assay type: functional, cell-based, Homo sapiens;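 also: growth inhibition of BCPAP cells, read out in a cell viability assay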
Description: SANGER: Inhibition of human BCPAP cell growth in a cell viability assay.

LN-405 = assay type: functional, cell-based, Homo sapiens
Description: SANGER: Inhibition of human LN-405 cell growth in a cell viability assay.

SW1990 = assay type: functional, cell-based, Homo sapiens;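 also: cell growth inhibition determined with a viability assay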
Description: SANGER: Inhibition of human SW1990 cell growth in a cell viability assay.

RO82-W-1 = assay type: functional, cell-based, Homo sapiens;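 also: growth inhibition of human RO82-W-1 cells, measured with a cell viability assay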
Description: SANGER: Inhibition of human RO82-W-1 cell growth in a cell viability assay.

MHH-ES-1 = assay type: functional, cell-based, Homo sapiens;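 also: cell growth inhibition measured by a cell viability assay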
Description: SANGER: Inhibition of human MHH-ES-1 cell growth in a cell viability assay.

NCI-H727 = assay type: functional, cell-based, Homo sapiens;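 also: growth inhibition of human NCI-H727 cells, read out with a cell viability assay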
Description: SANGER: Inhibition of human NCI-H727 cell growth in a cell viability assay.

NCI-H1092 = assay type: functional, cell-based; conditions: Homo sapiens;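 also: cell growth inhibition measured with a cell viability assay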
Description: SANGER: Inhibition of human NCI-H1092 cell growth in a cell viability assay.

NCI-H1755 = assay type: functional, cell-based, Homo sapiens;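 also: cell viability readout used to measure growth inhibition of NCI-H1755 cells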
Description: SANGER: Inhibition of human NCI-H1755 cell growth in a cell viability assay.

EW-16 = assay type: functional, cell-based, Homo sapiens;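 also: growth inhibition of human EW-16 cells, read out as cell viability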
Description: SANGER: Inhibition of human EW-16 cell growth in a cell viability assay.

KYSE-520 cell line = assay type: functional, cell-based, Homo sapiens;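 also: growth inhibition of human KYSE-520 cells, read out with a viability assay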
Description: SANGER: Inhibition of human KYSE-520 cell growth in a cell viability assay.

D-392MG = assay type: functional, cell-based, Homo sapiens
SK-MEL-24 = assay type: functional, cell-based; conditions: Homo sapiens;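 also: growth inhibition read out by a cell viability assay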
Description: SANGER: Inhibition of human SK-MEL-24 cell growth in a cell viability assay.

DSH1 = assay type: functional, cell-based, Homo sapiens;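 also: growth inhibition of human DSH1 cells, measured with a cell viability readout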
Description: SANGER: Inhibition of human DSH1 cell growth in a cell viability assay.

HL-60 = assay type: functional, cell-based; conditions: Homo sapiens;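 also: growth inhibition of human HL-60 cells, read out with a cell viability assay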
Description: SANGER: Inhibition of human HL-60 cell growth in a cell viability assay.

LAN-6 = assay type: functional, cell-based, Homo sapiens;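 also: growth inhibition of LAN-6 cells, determined with a cell viability assay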
Description: SANGER: Inhibition of human LAN-6 cell growth in a cell viability assay.

S-117 = assay type: functional, cell-based, Homo sapiens
Description: SANGER: Inhibition of human S-117 cell growth in a cell viability assay.

Daoy = assay type: functional, cell-based, Homo sapiens;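 also: daoy cell growth inhibition, read out as cell viability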
Description: SANGER: Inhibition of human Daoy cell growth in a cell viability assay.

UACC-257 = assay type: functional, cell-based, Homo sapiens
Description: SANGER: Inhibition of human UACC-257 cell growth in a cell viability assay.

NCI-H1650 = assay type: functional, cell-based, Homo sapiens;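 also: growth inhibition of human NCI-H1650 cells measured by a cell viability assay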
Description: SANGER: Inhibition of human NCI-H1650 cell growth in a cell viability assay.

C32 = assay type: functional, cell-based, Homo sapiens;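 also: cell viability assay, with IC50 reflecting inhibition of C32 cell growth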
Description: SANGER: Inhibition of human C32 cell growth in a cell viability assay.

JVM-2 = assay type: functional, cell-based; conditions: Homo sapiens;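 also: growth inhibition of JVM-2 cells determined by a cell viability assay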
Description: SANGER: Inhibition of human JVM-2 cell growth in a cell viability assay.

CHL-1 = assay type: functional, cell-based, Homo sapiens;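 also: cell growth inhibition, read out with a cell viability assay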
Description: SANGER: Inhibition of human CHL-1 cell growth in a cell viability assay.

KOSC-2 = assay type: functional, cell-based, Homo sapiens;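 also: growth inhibition of KOSC-2 cells, read out by a cell viability assay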
Description: SANGER: Inhibition of human KOSC-2 cell growth in a cell viability assay.

ES1 = assay type: functional, cell-based, Homo sapiens;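 also: growth inhibition of ES1 cells, read out with a cell viability assay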
Description: SANGER: Inhibition of human ES1 cell growth in a cell viability assay.

RPMI-8866 = assay type: functional, cell-based; conditions: Homo sapiens
Description: SANGER: Inhibition of human RPMI-8866 cell growth in a cell viability assay.

639-V = assay type: functional, cell-based, Homo sapiens;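 also: growth inhibition of 639-V cells, read out with a cell viability assay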
Description: SANGER: Inhibition of human 639-V cell growth in a cell viability assay.

RH-1 = assay type: functional, cell-based, Homo sapiens;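 also: growth inhibition of human RH-1 cells, read out with a cell viability assay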
Description: SANGER: Inhibition of human RH-1 cell growth in a cell viability assay.

OE33 = assay type: functional, cell-based, Homo sapiens;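 also: growth inhibition of human OE33 cells, measured by a cell viability assay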
Description: SANGER: Inhibition of human OE33 cell growth in a cell viability assay.

HT-144 = assay type: functional, cell-based, Homo sapiens
Description: SANGER: Inhibition of human HT-144 cell growth in a cell viability assay.

D-263MG = assay type: functional, cell-based, Homo sapiens
Description: SANGER: Inhibition of human D-263MG cell growth in a cell viability assay.

SCC-25 = assay type: functional, cell-based, Homo sapiens;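 also: growth inhibition of SCC-25 cells, measured with a cell viability assay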
Description: SANGER: Inhibition of human SCC-25 cell growth in a cell viability assay.

HuP-T3 = assay type: functional, cell-based, Homo sapiens;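 also: HuP-T3 cell growth inhibition, read out with a cell viability assay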
Description: SANGER: Inhibition of human HuP-T3 cell growth in a cell viability assay.

769-P = assay type: functional, cell-based, Homo sapiens
Description: SANGER: Inhibition of human 769-P cell growth in a cell viability assay.

SNU1 = assay type: functional, cell-based; conditions: Homo sapiens;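 also: growth inhibition of human NCI-SNU-1 cells, measured with a cell viability assay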
Description: SANGER: Inhibition of human NCI-SNU-1 cell growth in a cell viability assay.

For `Cc1cc([C@@H](C)Nc2ccccc2C(=O)O)c2nc(N3CCOCC3)cc(=O)n2c1` [AZD-6482], the IC50 (ONS-76; ons-76) was greater than 5.12 µM, the IC50 (IST-MEL1; ist-mel1) was 2.52 µM and > 5.12 µM and the IC50 (ABC-1; abc-1) was greater than 5.12 µM. The IC50 (SNB-75; Homo sapiens, SNB-75) was 1.67 µM, the IC50 (SNB-75; snb-75) was 3.15 µM and the IC50 (HEL; hel) was greater than 5.12 µM. For the same compound, the IC50 (HCC1937; hcc1937) was greater than 5.12 µM, the IC50 (Panc1005; panc1005) was 2.1 µM and > 5.12 µM and the IC50 (T98G; Homo sapiens, T98G) was greater than 5.12 µM. The IC50 (T98G; t98g) was greater than 5.12 µM, the IC50 (DU-4475) was greater than 5.12 µM and the IC50 (COLO-829; colo-829) was greater than 5.12 µM. For the same compound, the IC50 (UACC-62; uacc-62) was > 5.12 µM and 2.03 µM, the IC50 (SK-OV-3; sk-ov-3) was 1.2 µM and 4.67 µM and the IC50 (J-RT3-T3-5) was greater than 5.12 µM. The IC50 (BB65-RCC; Homo sapiens, BB65-RCC) was greater than 5.12 µM, the IC50 (BB65-RCC; bb65-rcc) was greater than 5.12 µM and the IC50 (CAS-1; Homo sapiens, CAS-1) was greater than 5.12 µM. The IC50 (CAS-1; cas-1) was greater than 5.12 µM, the IC50 (A 172; a 172) was greater than 5.12 µM and the IC50 (A704; a704) was > 5.12 µM and 3.31 µM. The IC50 (BCPAP; Homo sapiens, BCPAP) was greater than 5.12 µM, the IC50 (BCPAP; bcpap) was greater than 5.12 µM and the IC50 (LN-405; Homo sapiens, LN-405) was 2.44 µM. For the same compound, the IC50 (LN-405; ln-405) was 2.9 µM, the IC50 (SW1990; sw1990) was greater than 5.12 µM and the IC50 (RO82-W-1; ro82-w-1) was greater than 5.12 µM. The IC50 (MHH-ES-1; mhh-es-1) was greater than 5.12 µM, the IC50 (NCI-H727; nci-h727) was greater than 5.12 µM and the IC50 (NCI-H1092) was greater than 5.12 µM. The IC50 (NCI-H1755; Homo sapiens, NCI-H1755) was 3.27 µM, the IC50 (NCI-H1755; nci-h1755) was 3.31 µM and the IC50 (EW-16; ew-16) was greater than 5.12 µM. It also gave an IC50 (KYSE-520 cell line; Homo sapiens, KYSE-520) greater than 5.12 µM, an IC50 (KYSE-520 cell line; kyse-520) greater than 5.12 µM and an IC50 (D-392MG; d-392mg) greater than 5.12 µM. The IC50 (SK-MEL-24) was greater than 5.12 µM, the IC50 (DSH1; Homo sapiens, DSH1) was greater than 5.12 µM and the IC50 (DSH1; dsh1) was greater than 5.12 µM. The IC50 (HL-60) was greater than 5.12 µM, the IC50 (LAN-6; lan-6) was greater than 5.12 µM and the IC50 (S-117; s-117) was greater than 5.12 µM. For the same compound, the IC50 (Daoy; Homo sapiens, Daoy) was greater than 5.12 µM, the IC50 (Daoy; daoy) was greater than 5.12 µM and the IC50 (UACC-257; Homo sapiens, UACC-257) was greater than 5.12 µM. It also gave an IC50 (UACC-257; uacc-257) greater than 5.12 µM, an IC50 (NCI-H1650; nci-h1650) greater than 5.12 µM and an IC50 (C32; c32) greater than 5.12 µM. It also gave an IC50 (JVM-2) greater than 5.12 µM, an IC50 (CHL-1; Homo sapiens, CHL-1) greater than 5.12 µM and an IC50 (CHL-1; chl-1) of 4.72 µM. It also gave an IC50 (KOSC-2; kosc-2) greater than 5.12 µM, an IC50 (ES1; es1) greater than 5.12 µM and an IC50 (RPMI-8866) greater than 5.12 µM. The IC50 (639-V; 639-v) was 1.63 µM and 4.78 µM, the IC50 (RH-1; rh-1) was greater than 5.12 µM and the IC50 (OE33; oe33) was greater than 5.12 µM. The IC50 (HT-144; Homo sapiens, HT-144) was greater than 5.12 µM, the IC50 (HT-144; ht-144) was greater than 5.12 µM and the IC50 (D-263MG; d-263mg) was > 5.12 µM and 2.17 µM. For the same compound, the IC50 (SCC-25; scc-25) was > 5.12 µM and 4.74 µM, the IC50 (HuP-T3; hup-t3) was greater than 5.12 µM and the IC50 (769-P; 769-p) was greater than 5.12 µM. The IC50 (SNU1) was greater than 5.12 µM.
Compound `COc1ccc(C2=N[C@@H](c3ccc(Cl)cc3)[C@@H](c3ccc(Cl)cc3)N2C(=O)N2CCNC(=O)C2)c(OC(C)C)c1` [NUTLIN-3] has an IC50 (ONS-76; Homo sapiens, ONS-76) of 5.57 µM, an IC50 (IST-MEL1; Homo sapiens, IST-MEL1) greater than 8 µM and an IC50 (ABC-1; Homo sapiens, ABC-1) greater than 8 µM. The IC50 (SNB-75; Homo sapiens, SNB-75) was greater than 8 µM, the IC50 (HEL; Homo sapiens, HEL) was greater than 8 µM and the IC50 (HCC1937; Homo sapiens, HCC1937) was greater than 8 µM. For the same compound, the IC50 (Panc1005; Homo sapiens, Panc1005) was greater than 8 µM, the IC50 (T98G; Homo sapiens, T98G) was greater than 8 µM and the IC50 (DU-4475) was 2.8 µM. For the same compound, the IC50 (COLO-829; Homo sapiens, COLO-829) was 7.24 µM, the IC50 (UACC-62; Homo sapiens, UACC-62) was greater than 8 µM and the IC50 (SK-OV-3; Homo sapiens, SK-OV-3) was greater than 8 µM. It also gave an IC50 (J-RT3-T3-5) greater than 8 µM, an IC50 (BB65-RCC; Homo sapiens, BB65-RCC) greater than 8 µM and an IC50 (CAS-1; Homo sapiens, CAS-1) greater than 8 µM. The IC50 (A 172; Homo sapiens, A 172) was 2.68 µM, the IC50 (A704; Homo sapiens, A704) was greater than 8 µM and the IC50 (BCPAP; Homo sapiens, BCPAP) was greater than 8 µM. For the same compound, the IC50 (LN-405; Homo sapiens, LN-405) was greater than 8 µM, the IC50 (SW1990; Homo sapiens, SW1990) was greater than 8 µM and the IC50 (RO82-W-1; Homo sapiens, RO82-W-1) was greater than 8 µM. It also gave an IC50 (MHH-ES-1; Homo sapiens, MHH-ES-1) greater than 8 µM, an IC50 (NCI-H727; Homo sapiens, NCI-H727) greater than 8 µM and an IC50 (NCI-H1092) greater than 8 µM. For the same compound, the IC50 (NCI-H1755; Homo sapiens, NCI-H1755) was greater than 8 µM, the IC50 (EW-16; Homo sapiens, EW-16) was greater than 8 µM and the IC50 (KYSE-520 cell line; Homo sapiens, KYSE-520) was greater than 8 µM. It also gave an IC50 (D-392MG; Homo sapiens, D-392MG) greater than 8 µM, an IC50 (SK-MEL-24) greater than 8 µM and an IC50 (DSH1; Homo sapiens, DSH1) greater than 8 µM. The IC50 (HL-60) was greater than 8 µM, the IC50 (LAN-6; Homo sapiens, LAN-6) was greater than 8 µM and the IC50 (S-117; Homo sapiens, S-117) was greater than 8 µM. For the same compound, the IC50 (Daoy; Homo sapiens, Daoy) was greater than 8 µM, the IC50 (UACC-257; Homo sapiens, UACC-257) was greater than 8 µM and the IC50 (NCI-H1650; Homo sapiens, NCI-H1650) was 7.39 µM. For the same compound, the IC50 (C32; Homo sapiens, C32) was 5.6 µM, the IC50 (JVM-2) was greater than 8 µM and the IC50 (CHL-1; Homo sapiens, CHL-1) was greater than 8 µM. For the same compound, the IC50 (KOSC-2; Homo sapiens, KOSC-2) was greater than 8 µM, the IC50 (ES1; Homo sapiens, ES1) was greater than 8 µM and the IC50 (RPMI-8866) was 2.56 µM. It also gave an IC50 (639-V; Homo sapiens, 639-V) greater than 8 µM, an IC50 (RH-1; Homo sapiens, RH-1) greater than 8 µM and an IC50 (OE33; Homo sapiens, OE33) greater than 8 µM. The IC50 (HT-144; Homo sapiens, HT-144) was 2.65 µM, the IC50 (D-263MG; Homo sapiens, D-263MG) was greater than 8 µM and the IC50 (SCC-25; Homo sapiens, SCC-25) was greater than 8 µM. The IC50 (HuP-T3; Homo sapiens, HuP-T3) was greater than 8 µM, the IC50 (769-P; Homo sapiens, 769-P) was greater than 8 µM and the IC50 (SNU1) was 3.28 µM.
